Data published in the METLIN SMRT retention time set (Domingo-Almenara et al. 2019).

assay: gradient 5% acetonitrile 3 min, to 50% in 2 min, to 85% in 15 min, held 3 min, 100 µL/min; conditions: column: Zorbax Extend-C18 2.1 x 50 mm; eluents: water / acetonitrile, 0.1% formic acid
How it was run: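 Over 3 months, pure standards in mixtures of ~100 molecules were run by HPLC coupled to a quadrupole time-of-flight mass spectrometer in positive and negative ionization mode. The column was a Zorbax Extend-C18 (2.1 × 50 mm, 1.8 μm) at 100 μL/min, eluted with water and acetonitrile each holding 0.1% formic acid, with 40 μL dead and 900 μL dwell volumes. Retention time was determined from adduct peaks chosen by software and checked manually.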

Point of comparison: COc1cc(CCNC(=O)c2c(N3CCCC3=O)c3cc(F)ccc3n2C)cc(OC)c1OC, RP-LC retention time 762 s. Against it:
- Cc1noc(C)c1CCNC(=O)C1CCN(C(=O)c2ncn3c2COC(c2ccc(F)cc2)C3)CC1 (stereo not drawn) — lower, 711 s
- COC(=O)c1ccc(NC(=O)c2csc(-c3cn(C)c4ncccc34)n2)cc1 — higher, 990 s
- CNC(=O)c1noc([C@@H]2CC(F)(F)CN2Cc2cccn2C)n1 — lower, 590 s
- CC(C)CC(=O)Nc1cc2c(cc1S(=O)(=O)c1ccc(F)cc1)n(C)c(=O)n2C — higher, 847 s
- COC(=O)c1ccc(NC(=O)CSc2cc(N3CCN(c4ccc(OC)cc4)CC3)ncn2)cc1 — higher, 926 s
- CCCCOc1ccc(CNC(=O)c2ccc3c(c2)N(C)C(=O)C2CCCCN32)cc1 (stereo not drawn) — higher, 843 s
- O=C(NC1CCCCC1)c1nc(Nc2ccc(F)cc2)c2ccccc2n1 — higher, 883 s
- Cc1ccccc1Oc1nccnc1N1CCCC(C(=O)NC2CCCCCC2)C1 (stereo not drawn) — higher, 1120 s
- CCOC(=O)C1CCN(S(=O)(=O)c2cc(-c3c(CC)noc3NC(C)=O)ccc2OC)CC1 — higher, 797 s
- CSc1ccc(-c2nc3ccc(Cl)cn3c2Nc2ccc3c(c2)OCCO3)cc1 — higher, 819 s
- CCOC(=O)CNC(=O)Nc1ccc(CCc2nc3ccccc3[nH]2)cc1 — lower, 606 s
- COCCn1cc(CCNC(=O)c2cncc(Br)c2)c2cccnc21 — lower, 678 s
- O=C(c1nnc(-c2ccc(S(=O)(=O)N3CCCC3)cc2)o1)N1CCCCC1 — higher, 847 s
- CCOc1ccc(C(=O)N2CCC(n3c(-c4ccoc4)nc4cccnc43)C2)cc1 (stereo not drawn) — lower, 756 s
- COc1cccc(-c2ccc(=O)n(CCc3nc(-c4ccc5c(c4)OCO5)no3)n2)c1 — higher, 804 s
- Cc1ccc2c(c1)C1CC(C)(O2)N(c2cccc(C(=O)NCc3ccco3)c2)C(=O)N1 (stereo not drawn) — higher, 801 s
- CCNC(=O)N1CCN(CCCC(c2ccc(F)cc2)c2ccc(F)cc2)CC1 — higher, 766 s
- COc1ccc(NC(=O)Cn2nc3nc(N4CCSCC4)ccn3c2=O)cc1OC — lower, 639 s
- COc1ccc(-c2nc(-c3cn(Cc4ccc(F)cc4)nn3)no2)cc1OC — higher, 914 s
- COC(=O)c1ccccc1NC(=O)c1ccc(-n2ccnc2)nn1 — lower, 666 s
- Cc1ccccc1Cn1c(CN2CCC(C(=O)N3CCCCCC3)CC2)cc2ccccc21 — higher, 838 s
- O=C(c1cc(C2CC2)[nH]n1)N1CCN(c2ccc(N3CCOCC3)nn2)CC1 — lower, 577 s
- O=C(Nc1nnc(SCc2cccnc2)s1)c1cc(C2CC2)on1 — lower, 598 s
- O=S(=O)(c1cccc(-c2nnc(-c3ccc(Cl)cc3)o2)c1)N1CCCC1 — higher, 1050 s
- COc1ccc(-c2cc(C(=O)Nc3ccc(F)cc3)sn2)cc1 — higher, 1090 s
- CCOC(=O)c1ccc(NC(=O)CN2CCN(Cc3ccccc3)C(=O)C2=O)cc1 — higher, 766 s
- COc1cc(-c2nc(C3CC(=O)N(c4ccc(F)cc4)C3)no2)cc(OC)c1OC (stereo not drawn) — higher, 901 s
- COc1cc(Cc2nc(-c3ccc4nnc(C)n4c3)no2)cc(OC)c1 — higher, 796 s
- CCCNC(=O)N1CCC(c2noc(-c3ccncc3)n2)C1 (stereo not drawn) — lower, 642 s
- COC(=O)c1cc2c(=O)n(Cc3ccco3)ccc2nc1C — lower, 747 s
- O=C(COc1ccc(F)cc1)Nc1cnc(N2CCCCC2)nc1 — higher, 931 s
- Cc1ccccc1-c1noc(C2CCCN2C(=O)Nc2ccccc2Cl)n1 (stereo not drawn) — lower, 606 s
- Cc1ccc(C(=O)N2C[C@@H]3C[C@H](NS(C)(=O)=O)[C@H]2C3)cc1F — lower, 671 s
- CC[C@@H](CO)NC(=O)[C@@H]1C=C2c3cccc4[nH]cc(c34)C[C@H]2N(C)C1 — lower, 616 s
- Cc1cc2c(=O)n(CC(=O)Nc3ccc(F)cc3)c3cccnc3n2n1 — lower, 689 s
- O=C(NC1CCN(c2nnc3ccccn23)CC1)c1cccc(F)c1 — lower, 640 s
- CCc1c(C)nc2nc(-c3ccccc3)nn2c1Nc1cc(OC)ccc1OC — higher, 972 s
- COc1ccc(CC(=O)Nc2nc(S(=O)(=O)Cc3ccccc3)ns2)cc1OC — higher, 775 s
- O=C(CSc1ncccc1C(=O)O)Nc1nc(-c2ccccc2)cs1 — higher, 822 s
- COc1cccc(-n2c(N3CCCC(C(=O)NCc4cccs4)C3)nc3ccsc3c2=O)c1 (stereo not drawn) — higher, 822 s
- CCCCCCC(=O)Nc1nc(-c2ccc(C)cc2)cs1 — higher, 1190 s
- Cc1cc(C)c(S(=O)(=O)N2CCCC2c2nncn2Cc2ccncc2)c(C)c1 (stereo not drawn) — lower, 617 s
- O=C(NCC1CC1)C1CCCN(c2nccn3nc(-c4ccccc4Cl)cc23)C1 (stereo not drawn) — higher, 816 s
- CCOC(=O)C1=C(C)NC2=C(C(=O)C(C(=O)OC)C(C)C2)C1c1ccc(OC)cc1 (stereo not drawn) — higher, 860 s
- Cc1nc(N2CCN(c3ccccn3)CC2)nc2c1C(=O)CC(c1ccccc1F)C2 (stereo not drawn) — lower, 735 s
- CCOc1ccccc1NC(=O)CSc1ccc(N2CCCC(C(=O)NC3CC3)C2)nn1 (stereo not drawn) — lower, 705 s
- COc1ccc2cccc(NC(=O)c3ccsc3)c2n1 — higher, 1020 s
- COc1cccc(CN2N=C(C(=O)N3CCOCC3)S(=O)(=O)c3ccccc32)c1 — higher, 800 s
- CCCNC(=O)C1Cc2cc(S(=O)(=O)N3CCCCCC3)ccc2N1C(C)=O (stereo not drawn) — lower, 744 s
- CCc1nc(-c2csc(S(=O)(=O)N3CCCC(C(=O)NCc4ccc(C)cc4)C3)c2)no1 (stereo not drawn) — higher, 1060 s
- COc1ccc(CN(C)Cc2cc(=O)c3cc(C)ccc3[nH]2)cc1 — lower, 603 s
- Cc1ccc(C)c(NC(=O)C2CCCN(c3nc4c(s3)c(C)nn4-c3ccccc3)C2)c1 (stereo not drawn) — higher, 1220 s
- Cc1ccc(-c2nnc(-c3nc(NCc4ccccn4)c4ccccc4n3)o2)cc1 — lower, 703 s
- COc1ccc(CCC(=O)N2CCCC(C)(C(=O)NCc3ccc(C)cc3)C2)cc1 (stereo not drawn) — higher, 932 s
- Cc1cccc(NS(=O)(=O)c2cc(-c3cc(C(F)(F)F)on3)sc2C)c1C — higher, 1240 s
- CCOc1ccc(C(=O)N2CCC3(CC2)NC(=O)c2ccc(Cl)cc2N3)cc1 — higher, 768 s
- Cc1ccccc1CN1C[C@@H]2C(=O)N(CCCN3CCCC3=O)C(=O)[C@@H]2C1 — lower, 606 s
- CC(C)NC(=O)C1CCCN(c2nc3ncn(CC(=O)N4CCc5ccccc5C4)c(=O)c3s2)C1 (stereo not drawn) — lower, 723 s
- Cc1ccc(N(C)S(=O)(=O)c2cc(-c3[nH]ncc3C(=O)N(C)C)oc2C)cc1 — lower, 729 s
- O=C(c1c(F)cccc1Cl)N1CCN(c2nccn2-c2ccccc2F)CC1 — lower, 574 s
- CCc1nnc(-c2ccc(S(=O)(=O)N3CCC(C)CC3)o2)o1 — higher, 920 s
- O=C(Nc1ccc(N2CCOCC2)nc1)NC1CCCC1 — lower, 585 s
- CN1C(=O)C2(CCN(C(=O)COc3ccc(Cl)cc3)C2)c2ccccc21 (stereo not drawn) — higher, 838 s
- CC(=O)Nc1nsc(N2CCC(C(=O)NCc3ccccc3F)CC2)n1 — lower, 659 s
- CCNc1cc(C)nc(N2CCN(C(=O)c3ccccc3)CC2)n1 — lower, 616 s
- CCCS(=O)(=O)N1CCCC(c2nc(C(C)C)no2)CCNC(=O)CC1 (stereo not drawn) — lower, 720 s
- CCc1nn2c(CNC(=O)c3cccc(Cl)c3)c(-c3ccccc3)nc2s1 — higher, 998 s
- Cc1cccc(CNC(=O)c2cc3n(n2)CC(C)(C(=O)NCc2ccccc2)N(C)C3=O)c1 (stereo not drawn) — lower, 732 s
- CC(NC(=O)c1c(O)c2cccnc2n(-c2cccc(F)c2)c1=O)c1ccc(F)cc1 (stereo not drawn) — higher, 1210 s
- CNC(=O)CSc1nnc(N2CCN(C(=O)Cc3ccc([N+](=O)[O-])cc3)CC2)s1 — lower, 618 s
- O=S(=O)(Nc1ccc(F)cc1)c1ccc(-c2nnc(C3CCC3)o2)o1 — higher, 888 s
- CCSc1nnc(NC(=O)c2nnn(-c3nc4c(s3)CCCC4)c2C)s1 — higher, 1190 s
- Cc1nn(C)c(C)c1S(=O)(=O)N1CCCC(Cc2nncn2-c2ccccc2)C1 (stereo not drawn) — lower, 604 s
- COc1ccc(S(=O)(=O)N2CCC(c3noc(-c4ccncc4)n3)C2)cc1 (stereo not drawn) — higher, 816 s
- Cc1ccc(CNC(=O)C2CCN(S(=O)(=O)c3ccc4c(c3)CCCC(=O)N4)CC2)cc1 — lower, 752 s
- Cc1ccsc1C(=O)N1CCC2(CC1)N=C(c1ccc(Cl)cc1)NO2 — higher, 896 s
- O=C(O)c1cn(-c2ccc3c(c2)OCO3)nn1 — lower, 645 s
- Cc1nc2cccnc2n1-c1ccc(C(=O)NCCCN2CCCC2=O)cc1 — lower, 580 s
- COc1ccccc1N1CCN(c2ncc3c(n2)CCN(Cc2cccc(C)c2)C3)CC1 — lower, 705 s
- Cc1sc(NC(=O)C2CC2)nc1-c1ccc2c(c1)N(C)C(=O)CO2 — higher, 811 s
- COc1ccccc1NS(=O)(=O)c1ccc(-c2nnc(C3CCC3)o2)o1 — higher, 904 s
- CC(=O)N1C(=O)C2(NCC(C)N2)c2ccccc21 (stereo not drawn) — lower, 625 s
- Cc1ccc(CNC(=O)N2CCCC2c2cc(C)on2)cc1 (stereo not drawn) — higher, 798 s
- O=C1NCCCCCCN(C(=O)c2cccs2)[C@H]2CCCC[C@@H]12 — higher, 838 s
- CC(C)NC(=O)c1ccc2c(c1)CCCN2C(=O)c1ccc(F)cc1 — higher, 784 s
- CCN(Cc1ccccc1)C(=O)c1c(C)sc2ccn(CC)c(=O)c12 — lower, 754 s
- CCN1C(=O)C2(CCN(S(=O)(=O)c3ccc(C(F)(F)F)cc3)CC2)c2ccccc21 — higher, 1130 s
